Key:
[1] = molecular target: T1, H-Ras(M72C) GDP binding to SOScat (Homo sapiens, UniProt P01112, M72C); experiment: SOScat pull-down of H-Ras(M72C) GDP; conditions: SOScat pull-down of H-Ras(M72C) GDP at various concentrations of H-Ras
T1 construct: and H-Ras (residues 1-166) were transformed into Escherichia coli; His6; made in house; host or cells: Escherichia coli BL21(DE3)

[2] = molecular target: T2, H-Ras(M72C) GppNHp binding to Raf-1-RBD (Homo sapiens, UniProt P01112, M72C); experiment: Ras GppNHp in vitro pull down by His6-MBP-Raf-1-RBD; conditions: H-Ras(M72C) pre-labeled with compound
T2 construct: and H-Ras (residues 1-166) were transformed into Escherichia coli; His6; made in house; host or cells: Escherichia coli BL21(DE3)
Procedure: Ras GppNHp In Vitro Pull Down Assay by His6-MBP-Raf-1-RBD. For each His6-MBP-Raf-1-RBD in vitro pull down the total volume was 500 μL. Each reaction had the following final composition: Either 20, 80, 200, 400, or 800 nM Ras GppNHp (from 0.2 mg/mL Ras stock), 75 nM BSA (2.5 μg, 5 μL of 0.5 mg/mL BSA stock), 200 nM of His6-MBP-Raf-1-RBD (5.3 μg, 1.2 μL of 4.38 mg/mL stock of His6-MBP-Raf-1-RBDwitt), and Raf Pull Down Buffer to volume (25 mM Tris (pH 7.2), 150 mM NaCl, 5 mM MgCl2, 1% NP-40, 5% glycerol, 20 mM imidazole). Samples were then mixed by gentle rotation at 4° C. for 30 min. While equilibrating, add 50 μL Ni-NTA slurry (Qiagen) to a cellulose acetate spin cup and spin at 5,000 rpm on a tabletop centrifuge for 30 seconds. Wash the beads with 400 μL of Raf Pull Down Buffer to wash away bead storage buffer. Before adding each pull down solution, take 10 μL and save as a loading control sample. To each spin cup filled with washed Ni-NTA beads, add the remaining equilibrated pull down solution, seal the spin cup with parafilm and let rotate at 4° C. for 30 more minutes. After mixing, centrifuge the sample for 30 seconds at 5,000 rpm. Toss flow through. Wash the beads X 5 with 400 μL of Raf Pull Down Buffer. After last wash, centrifuge one last time to remove any excess buffer stuck to the beads. […] Blots were read out using LICOR compatible secondary antibodies. […]

H-Ras(M72C) GDP = H-Ras(M72C) GDP (Homo sapiens, UniProt P01112, M72C); experiment: Intrinsic nucleotide affinity by EDTA catalyzed nucleotide exchange (Raf-1-RBD pull down readout); type: biochemical; set-up: and H-Ras (residues 1-166) were transformed into Escherichia coli; His6; made in house; host or cells: Escherichia coli BL21(DE3)
Procedure: Intrinsic Nucleotide Affinity by EDTA Catalyzed Nucleotide Exchange. For each EDTA catalyzed reaction, the total reaction volume was 500 μL. Each reaction had the following final composition: 100 nM Ras GDP (1 μg, 5 μL of 0.2 mg/mL Ras stock), 75 nM BSA (2.5 μg, 5 μL of 0.5 mg/mL BSA stock), 100 μM total nucleotide concentration (5 μL of various ratios of GDP:GppNHp from 10 mM stock solutions), 10 mM of EDTA (10 μL of 0.5M EDTA pH 8.0), 64 mM of MgCl2 (16 μL of 2M MgCl2 stock), 3 μM of His6-MBP-Raf-1-RBDwitt (80 μg, 18.3 μL of 4.38 mg/mL stock of His6-MBP-Raf-1-RBDwitt), and Raf Pull Down Buffer to volume (25 mM Tris (pH 7.2), 150 mM NaCl, 5 mM MgCl2, 1% NP-40, 5% glycerol, 20 mM imidazole). Prior to initiating the EDTA catalyzed nucleotide exchange, the Ras, BSA, nucleotide, and Raf Pull Down Buffer were mixed by pipette on ice. To each tube, the EDTA was added, sample was inverted X 3, and then placed in a pre-warmed tube rack at 30° C. The exchange was allowed to occur at 30° C. for 15 minutes, inverting each tube X 3 every 5 minutes. Once the 15 minutes of exchange was complete, MgCl2 was added to each tube and inverted X 3 and placed on ice for 15 minutes. During the quenching on ice, add 100 μL Ni-NTA slurry (Qiagen) to a cellulose acetate spin cup and spin at 5,000 rpm on a tabletop centrifuge for 30 seconds. Wash the beads with 400 μL of Raf Pull Down Buffer to wash away bead storage buffer. Before adding the beads and His6-tagged Raf-1-RBDwitt, take a 10 μL sample as a loading control and quench it with 5 μL 5×SDS loading buffer. To each spin cup filled with washed Ni-NTA beads, add the quenched EDTA catalyzed exchange reaction and the His6-tagged Raf-1-RBDwitt. Seal the spin cup with parafilm and let rotate at 4° C. for 1 h. After mixing, centrifuge the sample for 30 seconds at 5,000 rpm. Toss flow through. Wash the beads×5 with 400 μL of Raf Pull Down Buffer. After last wash, centrifuge one last time to remove any excess buffer stuck to the beads. To each cup, add 50 μL of 5×SDS loading buffer and mix by vortexing. Let the buffer sit on the beads for 5 minutes and then elute into a fresh tube by centrifuging at 5000 rpm for 1.5 minutes. Load 10 μL of each loading control sample and 25 μL of each eluted pull down onto a SDS-PAGE gel and transfer to a nitrocellulose blot for Western Blot analysis. Block with 5% BSA TBS buffer and then blot with pan Ras primary antibody at a 1:500 dilution in 5% BSA in TBST (Cell Signaling #3965). Blots were read out using LICOR compatible secondary antibodies and quantified. Signal from each GDP-only (i.e. 0% GppNHp) exchange was subtracted as background from the 20%, 50%, and 66% GppNHp pull-down signals for each protein construct. The signal for the GppNHp only lane (i.e. 100% GppNHp) was normalized to 1 and all other signals were made relative to this band within each protein construct tested.

- SOS binding [1]: inhibits SOS binding
- Normalized Average (Nucleotide Exchange PD Assay) (H-Ras(M72C) GDP; H-Ras(M72C) 2C07, GppNHp only, normalized to 1): 1.00
- Normalized Average (Nucleotide Exchange PD Assay) (H-Ras(M72C) GDP; H-Ras(M72C) 2C07, GTP:GDP 0, background subtracted): 0.00
- Normalized Average (Nucleotide Exchange PD Assay) (H-Ras(M72C) GDP; H-Ras(M72C) 2C07, GTP:GDP 0.2, relative to GppNHp-only signal): 0.03
- Normalized Average (Nucleotide Exchange PD Assay) (H-Ras(M72C) GDP; H-Ras(M72C) 2C07, GTP:GDP 0.5, relative to GppNHp-only signal): 0.12
- Normalized Average (Nucleotide Exchange PD Assay) (H-Ras(M72C) GDP; H-Ras(M72C) 2C07, GTP:GDP 0.67, relative to GppNHp-only signal): 0.13
Structure (SMILES): COc1ccc(-n2ncc(C(=O)NCCCSSCCN(C)C)c2C(F)(F)F)cc1 [Compound 2C07, N-(3-((2-(dimethylamino)ethyl)disulfanyl)propyl)-1-(4-methoxyphenyl)-5-(trifluoromethyl)-1H-pyrazole-4-carboxamide]
- Raf-1-RBD binding (pull down), labeled vs unlabeled H-Ras(M72C) [2]: no significant difference in Raf-1-RBD binding
- nucleotide preference of 2C07 bound Ras (H-Ras(M72C) GDP; varying ratios of GDP:GppNHp, EDTA catalyzed exchange): nucleotide preference for GDP over GppNHp

Source: patent publication US11136297B2, “Compositions and methods for treating cancer” (THE REGENTS OF THE UNIVERSITY OF CALIFORNIA, priority 2016, dated 2021)
